# Results: US20250282736A1, “SMALL MOLECULE MODULATORS OF HUMAN PREGNANE X RECEPTOR” (ST. JUDE CHILDREN'S RESEARCH HOSPITAL, priority 2022, published 2025)
# Columns and labels:
# hPXR [1] = molecular target: T1, hPXR (Homo sapiens (Human), UniProt O75469); experiment: hPXR binding assay
# hPXR [2] = molecular target: T1, hPXR; experiment: cell-based hPXR inverse agonistic assay
# hPXR [3] = molecular target: T1, hPXR; experiment: cell-based hPXR antagonistic assay
# hPXR [4] = molecular target: T1, hPXR; experiment: cell-based hPXR agonistic assay
# T1 sequence (O75469 whole entry): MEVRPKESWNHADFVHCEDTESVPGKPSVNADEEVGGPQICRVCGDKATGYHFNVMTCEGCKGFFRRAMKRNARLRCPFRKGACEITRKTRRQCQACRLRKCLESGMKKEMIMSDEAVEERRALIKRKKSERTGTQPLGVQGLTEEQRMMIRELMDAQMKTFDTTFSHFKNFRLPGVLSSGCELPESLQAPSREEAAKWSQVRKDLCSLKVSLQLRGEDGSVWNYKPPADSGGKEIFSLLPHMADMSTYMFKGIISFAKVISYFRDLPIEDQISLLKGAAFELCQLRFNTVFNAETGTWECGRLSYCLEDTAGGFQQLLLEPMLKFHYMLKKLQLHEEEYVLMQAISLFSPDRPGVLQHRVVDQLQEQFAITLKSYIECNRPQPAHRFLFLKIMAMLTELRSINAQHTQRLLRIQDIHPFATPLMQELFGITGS
IC50 (hPXR [1]) [µM],IC50 (hPXR [2]) [µM],IC50 (hPXR [3]) [µM],EC50 (hPXR [4]) [µM],"Agonist (% activation at 10 μM) (hPXR [4]; at 10 μM, rifampicin at 10 μM as 100% activation, DMSO (0.3%) as 0%)",inhibition at 10 µM (hPXR [1]; read-out: Binding (% inhibition at 10 μM)) [%],"IC50 (hPXR [1]; read-out: Binding (IC50/μM), hPXR binding assay) [µM]",inhibition at 10 µM (hPXR [2]; read-out: Inverse agonist (% inhibition at 10 μM)) [%],inhibition at 10 µM (hPXR [3]; read-out: Antagonist (% inhibition at 10 μM)) [%],Compound
> 30,> 30,> 30,0.86 ± 0.12,(29 ± 4)%,–,–,–,–,"COc1ccc(-n2nnc(C(=O)Nc3ccc(N)c(C(C)(C)C)c3)c2C)cc1 [E3, N-(4-amino-3-(tert-butyl)phenyl)-1-(4-methoxyphenyl)-5-methyl-1H-1,2,3-triazole-4-carboxamide]"
–,0.82 ± 0.12,11.5 ± 2.81,> 30,–,42,1,104,35,CCCCCCCCOc1cc(NC(=O)c2nnn(-c3cc(OC)ccc3OC)c2C)cc(C(C)(C)C)c1 [D20]
